We go through 32 compounds from US20160016944A1, “FUNGICIDAL 3--HETEROCYCLE DERIVATIVES” (priority 2013, published 2016).

Where two headings read alike, the source gives them in different places. Marks after values point to notes of the source that are not given here.

The test system of one series is Phytophthora infestans. Type of series: in vivo. Conditions: tomato plants, preventive spray, 500 ppm active ingredient, evaluated 5 days after inoculation.
The nature of series [1]: logP by HPLC on reversed phase columns (EEC directive 79/831 Annex V.A8). The conditions noted are these: for chromatographic logP: pH 2.7; for LogP: method [a]: HPLC/LC-MS at pH 2.7, 0.1% formic acid in water / acetonitrile gradient, Table 1.
Protocol: (§2) Calibration was done with not branched alkan2-ones (with 3 to 16 carbon atoms) with known log P-values (measurement of log P values using retention times with linear interpolation between successive alkanones). lambda-maX-values were determined using UV-spectra from 200 nm to 400 nm and the peak values of the chromatographic signals.
The conditions of series [2]: pH 2.7.
Protocol: as §2
The subject of the next series is Pyrenophora teres. Nature of the series: In vivo preventive test on Pyrenophora teres (net blotch on barley). The conditions noted are these: barley plants, preventive spray, 500 ppm active ingredient, evaluated 14 days after inoculation. As for the experimental part: (§1) The tested active ingredients are prepared by homogenization in a mixture of acetone/Dimethyl sulfoxide/Tween®, and then diluted with water to obtain the desired active material concentration.
The young plants of barley are treated by spraying the active ingredient prepared as described above. Control plants are treated only with an aqueous solution of acetone/Dimethyl sulfoxide/Tween®.
After 24 hours, the plants are contaminated by spraying the leaves with an aqueous suspension of Pyrenophora teres spores. The contaminated barley plants are incubated for 48 hours at 20° C. and at 100% relative humidity and then for 12 days at 20° C. and at 70-80% relative humidity.
The test is evaluated 14 days after the inoculation. 0% means an efficacy which corresponds to that of the control plants while an efficacy of 100% means that no disease is observed.

The test system of a further series is Botrytis cinerea. Nature of the series: In vivo preventive test on Botrytis cinerea (grey mould). Conditions: gherkin plants, preventive spray, 500 ppm active ingredient, evaluated 4 to 5 days after inoculation. How it is done:
as §1
The young plants of gherkin are treated by spraying the active ingredient prepared as described above. Control plants are treated only with an aqueous solution of acetone/Dimethyl sulfoxide/Tween®.
After 24 hours, the plants are contaminated by spraying the leaves with an aqueous suspension of Botrytis cinerea spores. The contaminated gherkin plants are incubated for 4 to 5 days at 17° C. and at 90% relative humidity.
The test is evaluated 4 to 5 days after the inoculation. 0% means an efficacy which corresponds to that of the control plants while an efficacy of 100% means that no disease is observed.

A further series deals with Plasmopara viticola. Nature of the series: Plasmopara test (grapevines) / preventive. Type of series: in vivo. Conditions: grapevine young plants, preventive spray, 10 ppm active ingredient, evaluated 6 days after inoculation. How it is done:
To produce a suitable preparation of active compound, 1 part by weight of active compound is mixed with the stated amounts of solvent and emulsifier, and the concentrate is diluted with water to the desired concentration.
To test for preventive activity, young plants are sprayed with the preparation of active compound at the stated rate of application. After the spray coating has dried on, the plants are inoculated with an aqueous spore suspension of Plasmopara viticola and then remain for 1 day in an incubation cabinet at approximately 20° C. and a relative atmospheric humidity of 100%. The plant is subsequently placed for 4 days in a greenhouse at approximately 21° C. and a relative atmospheric humidity of approximately 90%. The plants are then misted and placed for 1 day in an incubation cabinet.
The test is evaluated 6 days after the inoculation. 0% means an efficacy which corresponds to that of the untreated control, while an efficacy of 100% means that no disease is observed.

A word on the chromatographic logP: it is a lipophilicity value derived from retention on a column. In the case of `Cn1c(/C(=N\OCc2cccc(NC(=O)OC(C)(C)C)n2)c2ccccc2)noc1=S` [Example 1, tert-butyl {6-[({[(Z)-(4-methyl-5-thioxo-4,5-dihydro-1,2,4-oxadiazol-3-yl)(phenyl)methylene]amino}oxy)methyl]pyridin-2-yl}carbamate], the “% efficacy” value in the series on Phytophthora infestans came to 97%. Also, the chromatographic logP in series [1] came out at 4.66.

With `C#CCCOC(=O)Nc1cccc(CO/N=C(/c2ccccc2)c2noc(=S)n2C)n1` [Example 2, but-3-yn-1-yl {6-[({[(Z)-(4-methyl-5-thioxo-4,5-dihydro-1,2,4-oxadiazol-3-yl)(phenyl)methylene]amino}oxy)methyl]pyridin-2-yl}carbamate], in the series with Phytophthora infestans, the “% efficacy” value amounted to 93%. In series [1], this compound came in with a chromatographic logP of 3.87.

Regarding `C#CCC(C)(C)OC(=O)Nc1cccc(CON=C(c2ccccc2)c2noc(=S)n2C)n1` [Example 3], the “% efficacy” value in the series on Phytophthora infestans amounted to 93%. For the same compound, the LogP in series [1] was 4.54^[a].

For `Cn1c(C(=NOCc2cccc(NC(=O)OCc3ccccc3)n2)c2ccccc2)noc1=S` [Example 4], the LogP in series [1] is 4.58^[a].

Turning to `CCCCCOC(=O)Nc1cccc(CON=C(c2ccccc2)c2noc(=S)n2C)n1` [Example 5], in the series on Phytophthora infestans, the “% efficacy” value came to 80%. For the same compound, the LogP in series [1] was 5.05^[a].

Consider `CCCCC(=O)Nc1cccc(CON=C(c2ccccc2)c2noc(=S)n2C)n1` [Example 6], for which, in series [2], the LogP is 4.18^[a]. For the same compound, the “% efficacy” value with Phytophthora infestans is 99%; in the series with Pyrenophora teres, 96%.

`Cn1c(/C(=N\OCc2cccc(N)n2)c2ccccc2)noc1=S` [Example 7, 3-[(Z)-{[(6-aminopyridin-2-yl)methoxy]imino}(phenyl)methyl]-4-methyl-1,2,4-oxadiazole-5(4H)-thione]: the “% efficacy” value in the series on Phytophthora infestans turned out to be 99%. This compound showed a chromatographic logP in series [1] of 1.59.

On to `Cn1oc(=S)nc1C(=NOCc1csc(NC(=O)OCCc2ccccc2)n1)c1ccccc1` [Example 8], for which the “% efficacy” value with Phytophthora infestans turned out to be 79%. For the same compound, the LogP in series [1] was 3.76^[a].

For the compound `C#CCCOC(=O)Nc1nc(CON=C(c2ccccc2)c2nc(=S)on2C)cs1` [Example 9], the “% efficacy” value in the series with Phytophthora infestans came to 89%. In addition, in series [1], the LogP is 2.96^[a].

`Cn1oc(=S)nc1C(=NOCc1csc(NC(=O)COc2ccccc2)n1)c1ccccc1` [Example 10]: the LogP in series [2] is 3.31^[a]. Further, the “% efficacy” value in the series with Botrytis cinerea is listed as 74%; in the series on Phytophthora infestans, 84%.

As for `Cn1oc(=S)nc1C(=NOCc1csc(NC(=O)C2COc3ccccc3O2)n1)c1ccccc1` (centres unmarked) [Example 11], in series [2], the LogP is 3.50^[a]. Also, the “% efficacy” value is listed as 76% with Phytophthora infestans and 82% in the series on Plasmopara viticola.

Take `Cn1oc(=S)nc1C(=NOCc1csc(NC(=O)OC2CC3CCC2C3)n1)c1ccccc1` (centres unmarked) [Example 12]: in series [1], the LogP is 4.06^[a].

For `CCCCCCCC(=O)Nc1nc(CON=C(c2ccccc2)c2nc(=S)on2C)cs1` [Example 13], the “% efficacy” value in the series on Phytophthora infestans is given as 98%. Moreover, the LogP in series [1] was 4.39^[a].

With `Cn1oc(=S)nc1C(=NOCc1csc(NC(=O)C2(C)CC2)n1)c1ccccc1` [Example 15], in series [2], the LogP was 3.11^[a]. The figures for the “% efficacy” value in the series with Botrytis cinerea and in the series with Phytophthora infestans were 95% and 99%, respectively.

Turning to `CCCCCC(=O)Nc1nc(CON=C(c2ccccc2)c2nc(=S)on2C)cs1` [Example 16], the LogP in series [2] is 3.63^[a]. For the same compound, the “% efficacy” value with Botrytis cinerea was found to be 95%; with Phytophthora infestans, 76%.

With `C#CCCCCOC(=O)Nc1nc(CON=C(c2ccccc2)c2nc(=S)on2C)cs1` [Example 17], in the series with Phytophthora infestans, the “% efficacy” value was 100%. Besides, the LogP in series [1] was 3.44^[a].

On to `CCC(C)SC(=O)Nc1nc(CON=C(c2ccccc2)c2nc(=S)on2C)cs1` (centres unmarked) [Example 18], for which, in the series with Phytophthora infestans, the “% efficacy” value was determined as 83%. Also, the LogP in series [1] is 3.90^[a].

`C#CCCOC(=O)Nc1cccc(CON=C(c2ccccc2)c2nc(=NC#N)on2C)n1` [Example 19]: the LogP in series [1] was 3.13^[a].

For the compound `Cn1oc(=S)nc1/C(=N\OCc1csc(N)n1)c1ccccc1` [Example 20, 3-[(Z)-{[(2-amino-1,3-thiazol-4-yl)methoxy]imino}(phenyl)methyl]-2-methyl-1,2,4-oxadiazole-5(2H)-thione], the chromatographic logP in series [1] is 1.53.

As for `Cn1oc(=S)nc1C(=NOCc1csc(NC(=O)C(C)(C)C)n1)c1ccccc1` [Example 21], the LogP in series [1] was 3.31^[a].

`C#CCC(C)OC(=O)Nc1nc(CON=C(c2ccccc2)c2nc(=S)on2C)cs1` (centres unmarked) [Example 22]: in the series on Phytophthora infestans, the “% efficacy” value is 74%. The LogP in series [1] is 3.23^[a].

Take `Cn1oc(=S)nc1C(=NOCc1csc(NC(=O)c2ccccc2)n1)c1ccccc1` [Example 23]: the entries for the “% efficacy” value with Botrytis cinerea and in the series with Phytophthora infestans were 99% and 71%, respectively. The LogP in series [1] is 3.31^[a].

For the compound `CCCCCCC(=O)Nc1nc(CON=C(c2ccccc2)c2nc(=S)on2C)cs1` [Example 24], in series [2], the LogP was 3.99^[a]. Further, the “% efficacy” value in the series with Botrytis cinerea was 84%; in the series on Phytophthora infestans it was 79%.

On to `C#CCCC(C)OC(=O)Nc1nc(CON=C(c2ccccc2)c2nc(=S)on2C)cs1` (centres unmarked) [Example 25], for which the LogP in series [1] was 3.41^[a].

Regarding `C#CCCOC(=O)Nc1cccc(CON=C(c2ccccc2)c2nc(=S)on2C)n1` [Example 26], in series [1], the LogP is 3.15^[a].

Take `Cn1oc(=S)nc1C(=NOCc1csc(NC(=O)OCCOc2ccccc2)n1)c1ccccc1` [Example 27]: the “% efficacy” value with Phytophthora infestans was 90%. Further, in series [1], the LogP was 4.18^[a].

In the case of `CN1C(C(=NOCc2cccc(NC(=O)OC(C)(C)C)n2)c2ccccc2)=NOS1=O` (centres unmarked) [Example 28], the LogP in series [1] was 4.18^[a].

As to `C#CCCCOC(=O)Nc1nc(CON=C(c2ccccc2)c2nc(=S)on2C)cs1` [Example 29], the LogP in series [2] is 3.19^[a]. In addition, the “% efficacy” value in the series on Botrytis cinerea turned out to be 71%.

For the compound `Cn1oc(=S)nc1/C(=N\OCc1csc(NC(=O)OC(C)(C)C)n1)c1ccccc1` [Example 30, tert-butyl {4-[({[(Z)-(2-methyl-5-thioxo-2,5-dihydro-1,2,4-oxadiazol-3-yl)(phenyl)methylene]amino}oxy)methyl]-1,3-thiazol-2-yl}carbamate], the “% efficacy” value in the series on Phytophthora infestans came to 100%; in the series with Plasmopara viticola, 79%; in the series on Pyrenophora teres, 86%. In addition, the chromatographic logP in series [1] was found to be 3.53.

As to `CC(COc1ccccc1)OC(=O)Nc1nc(CON=C(c2ccccc2)c2nc(=S)on2C)cs1` (centres unmarked) [Example 31], in series [1], the LogP was 4.44^[a].

On to `CCCCC(CC)COC(=O)Nc1nc(CON=C(c2ccccc2)c2nc(=S)on2C)cs1` (centres unmarked) [Example 32], for which the LogP in series [1] was 5.55^[a].

Turning to `CNC(=N\O)/C(=N\OCc1cccc(NC(=O)OC(C)(C)C)n1)c1ccccc1` [VIII-1, tert-butyl {6-[({[(1Z,2Z)-2-(hydroxyimino)-2-(methylamino)-1-phenylethylidene]amino}oxy)methyl]pyridin-2-yl}carbamate], in series [1], the chromatographic logP is 2.6.
